“Also recorded” adds a separate entry of the source.
Assays:
[1] = Solubility (Table 1); format: physicochemical; conditions: for Solubility Insoluble: solvents in which the compound is insoluble; for Solubility Soluble: solvents in which the compound is soluble
Experimental: Each of the compounds prepared by Examples 1 to 7 were subjected to UV absorbance analysis, IR(infrared) absorbance analysis and high resolution mass spectrometry analysis so as to determine the molecular weight and formula of the purified compound. Specifically, UV absorbance analysis was carried out by UV-265 spectrophotometer (Shimadzu), IR absorbance analysis was carried out by FTS-80 spectrophotometer (Bio-Rad Digilab Division), and the molecular weight and formula were determined through High resolution MS analysis by using VG70-SEQ mass spectrometry. Also, a nuclear magnetic resonance device (Varian 300, 500 NMR) was used to obtain ^1H, ^13C-NMR spectrum, and the spectrum was synthetically analyzed to determine the structure.

[2] = tested on: diabetic db/db mice; test: Blood glucose level in db/db mice; format: in vivo; conditions: for reduced extent of blood glucose level compared to control / blood glucose level: 10 mg/kg oral
Experimental: In order to measure the blood glucose level in db/db mice through treatment of the compounds obtained from Examples, the effects of the compounds were measured by using a method described in the reference (Halseth A E et al, Biochem Biophys Res Commun. 294, […], 2002).
Meanwhile, to a control group, the same volume of saline solution orally administered for 4 weeks. Then, the change in blood glucose level of the mice was recorded.

Row | Molecule | Solubility Insoluble [1] | Solubility Soluble [1] | further results
1 | CCCc1ccc(Oc2cc(CCC)cc(OC(C)=O)c2OC(C)=O)cc1 [Example 4, 1-(4-propylphenoxy)-2,3-diacetyloxy-5-propylbenzene] | Water | Alcohol, and DMSO | –
2 | obovatol [Example 1] | – | – | change in blood glucose level compared to the control group ([2]; 5 mg/kg oral, 4 weeks): did not show a significant change; reduced extent of blood glucose level compared to control ([2]; after 1 week): 39.6%; blood glucose level ([2]; after 1 week (control 390.25±44.1)): 235.75±20.9; reduced extent of blood glucose level compared to control ([2]; after 2 weeks): 29.2%; blood glucose level ([2]; after 2 weeks (control 419.75±28.8)): 297.25±29; reduced extent of blood glucose level compared to control ([2]; after 3 weeks): 52.7%; blood glucose level ([2]; after 3 weeks (control 495±86.2)): 234±61.5; reduced extent of blood glucose level compared to control ([2]; after 4 weeks): 55.2%; blood glucose level ([2]; after 4 weeks (control 522±78)): 288±27.6
3 | CCCc1ccc(Oc2cc(CCC)cc(O)c2OC)cc1 [Example 3, 3-(4-propylphenoxy)-2-methoxy-5-propylphenol] | Hexane,; also recorded: Water | Alcohol, and DMSO | –
4 | C/C=C/c1ccc(Oc2cc(/C=C/C)cc(O)c2O)cc1 [Example 5, 3-(4-((E)-prop-1-enyl)phenoxy)-5-((E)-prop-1-enyl)benzene-1,2-diol] | Water | Alcohol, and DMSO | –
5 | CCCc1ccc(Oc2cc(CCC)cc(O)c2O)cc1 [Example 2, 3-(4-propylphenoxy)-5-propylbenzene-1,2-diol] | Water | Alcohol, and DMSO | –
6 | C/C=C/c1ccc(Oc2cc(/C=C/C)cc(OC(C)=O)c2OC(C)=O)cc1 [Example 7, 1-(4-((E)-prop-1-enyl)phenoxy)-2,3-diacetyloxy-5-((E)-prop-1-enyl)benzene] | Water | Alcohol, and DMSO | –

Reference: patent US20100125103A1 (TG BIOTECH CO. LTD., priority 2008, published 2010)
